Test results reported in patent US20230077362A1 (CORTEVA AGRISCIENCE LLC, priority 2019, published 2023).
Like-named read-outs stand apart in the source and are kept apart here.

Legend:
[1] = tested on: Cabbage Looper (Trichoplusia ni) ("CL"), second instar larvae; test: Bioassay on cabbage looper (CL), 128-well diet tray assay; type: in vivo; conditions: for pest or weed control at 50 µg/cm2: Trichoplusia ni; for CL rating: Table ABC, species CL, C = not tested, D = no activity noticed; for CL (Biological Results, rating): Cabbage Looper (Trichoplusia ni), C = Not Tested
Method in brief: (§1)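 Read-out: percent larval mortality per well, averaged over 8 wells. Incubation 25° C., 14:10 L:D photoperiod, 5–7 days, trays sealed with clear adhesive cover.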

[2] = tested on: Beet Armyworm (Spodoptera exigua) ("BAW"), second instar larvae; test: Bioassay on beet armyworm (BAW), 128-well diet tray assay; type: in vivo; conditions: for pest or weed control at 50 µg/cm2: Spodoptera exigua; for BAW rating: Table ABC, species BAW, C = not tested, D = no activity noticed; for BAW (Biological Results, rating): Beet Armyworm (Spodoptera exigua), C = Not Tested
Method in brief: as §1

[3] = read-out: CL (Biological Results, rating)
[4] = read-out: BAW (Biological Results, rating)

With `O=C(/N=C1\SCC(=O)N1c1cc(F)ccc1COCC(F)(F)F)Nc1ccc(-n2cnc(-c3ccc(OC(F)(F)F)cc3)n2)cc1F` [Compound J690, (Z)-1-(3-(5-Fluoro-2-((2,2,2-trifluoroethoxy)methyl)phenyl)-4-oxothiazolidin-2-ylidene)-3-(2-fluoro-4-(3-(4-(trifluoromethoxy)phenyl)-1H-1,2,4-triazol-1-yl)phenyl)urea] as the compound, how does the pest or weed control at 50 µg/cm2 ([1]; read-out: CL rating) read?
Its pest or weed control at 50 µg/cm2 is 50 to 100%.

What about the pest or weed control at 50 µg/cm2 ([2]; read-out: BAW rating) of the same compound?
Its pest or weed control at 50 µg/cm2 is 50 to 100%.

Which pest or weed control at 50 µg/cm2 [1, 3] does the source give for `O=C(/N=C1\SCC(=O)N1c1ccccc1N1CCCCC1)Nc1ccc(-c2ncn(-c3ccc(OC(F)(F)F)cc3)n2)cc1F` [Compound J198, (Z)-1-(2-Fluoro-4-(1-(4-(trifluoromethoxy)phenyl)-1H-1,2,4-triazol-3-yl)phenyl)-3-(4-oxo-3-(2-(piperidin-1-yl)phenyl)thiazolidin-2-ylidene)urea] here?
Its pest or weed control at 50 µg/cm2 is 50 to 100%.

And the pest or weed control at 50 µg/cm2 [2, 4]?
Its pest or weed control at 50 µg/cm2 is 50 to 100%.

How did the pest or weed control at 50 µg/cm2 [1, 3] turn out when `COC(C)c1ccc(C)cc1N1C(=O)CS/C1=N\C(=O)Nc1ccc(-c2ccn(-c3ccc(C(F)(F)F)cn3)n2)cc1C` (stereo not shown) [Compound J311, (Z)-1-(3-(2-(1-Methoxyethyl)-5-methylphenyl)-4-oxothiazolidin-2-ylidene)-3-(2-methyl-4-(1-(5-(trifluoromethyl)pyridin-2-yl)-1H-pyrazol-3-yl)phenyl)urea] was run?
The pest or weed control at 50 µg/cm2 was 50 to 100%.

And the pest or weed control at 50 µg/cm2 [2, 4]?
Its pest or weed control at 50 µg/cm2 is 50 to 100%.

Which pest or weed control at 50 µg/cm2 ([1]; read-out: CL rating) does the source give for `COc1cc(COCC(F)(F)F)c(N2C(=O)CS/C2=N\C(=O)Nc2ccc(-c3ncn(-c4ccc(S(F)(F)(F)(F)F)cc4)n3)cc2C#N)cc1OC` [Compound J588, (Z)-1-(2-Cyano-4-(1-(4-(pentafluoro-λ^6-sulfaneyl)phenyl)-1H-1,2,4-triazol-3-yl)phenyl)-3-(3-(4,5-dimethoxy-2-((2,2,2-trifluoroethoxy)methyl)phenyl)-4-oxothiazolidin-2-ylidene)urea] here?
The pest or weed control at 50 µg/cm2 was 50 to 100%.

What about the pest or weed control at 50 µg/cm2 ([2]; read-out: BAW rating) of the same compound?
Its pest or weed control at 50 µg/cm2 is 50 to 100%.

With `CC(C)c1ccc(N(C)C)cc1N1C(=O)CS/C1=N\C(=O)Nc1ccc(-c2cn(-c3ccc(C(F)(F)F)cn3)cn2)cc1F` [Compound J481, (Z)-1-(3-(5-(Dimethylamino)-2-isopropylphenyl)-4-oxothiazolidin-2-ylidene)-3-(2-fluoro-4-(1-(5-(trifluoromethyl)pyridin-2-yl)-1H-imidazol-4-yl)phenyl)urea] as the compound, how does the pest or weed control at 50 µg/cm2 ([1]; read-out: CL rating) read?
The pest or weed control at 50 µg/cm2 was 50 to 100%.

What about the pest or weed control at 50 µg/cm2 ([2]; read-out: BAW rating) of the same compound?
Its pest or weed control at 50 µg/cm2 is 50 to 100%.

`COc1ccc(C(C)C)c(N2C(=O)CS/C2=N\C(=O)Nc2ccc(-c3ncn(-c4ccc(OC(F)(F)F)cn4)n3)cc2C(F)(F)F)c1` [Compound J277, (Z)-1-(3-(2-Isopropyl-5-methoxyphenyl)-4-oxothiazolidin-2-ylidene)-3-(4-(1-(5-(trifluoromethoxy)pyridin-2-yl)-1H-1,2,4-triazol-3-yl)-2-(trifluoromethyl)phenyl)urea] was tested. Which pest or weed control at 50 µg/cm2 [1, 3] did it give?
Its pest or weed control at 50 µg/cm2 is 50 to 100%.

What about the pest or weed control at 50 µg/cm2 [2, 4] of the same compound?
Its pest or weed control at 50 µg/cm2 is 50 to 100%.

What does the source list for `Cc1ccc(COCC(F)(F)F)c(N2C(=O)CS/C2=N\C(=O)Nc2ccc(-c3cn(-c4ccc(C(F)(F)F)cc4)cn3)cc2C)c1` [Compound J526, (Z)-1-(3-(5-Methyl-2-((2,2,2-trifluoroethoxy)methyl)phenyl)-4-oxothiazolidin-2-ylidene)-3-(2-methyl-4-(1-(4-(trifluoromethyl)phenyl)-1H-imidazol-4-yl)phenyl)urea]?
pest or weed control at 50 µg/cm2 ([1]; read-out: CL rating): 50 to 100%; pest or weed control at 50 µg/cm2 ([2]; read-out: BAW rating): 50 to 100%

What does the source list for `COC(c1ccc(C)cc1N1C(=O)CS/C1=N\C(=O)Nc1ccc(-c2nc(-c3ccc(OC(F)(F)F)cc3)no2)cc1F)C(F)(F)F` (stereo not shown) [Compound J428, (Z)-1-(2-Fluoro-4-(3-(4-(trifluoromethoxy)phenyl)-1,2,4-oxadiazol-5-yl)phenyl)-3-(3-(5-methyl-2-(2,2,2-trifluoro-1-methoxyethyl)phenyl)-4-oxothiazolidin-2-ylidene)urea]?
pest or weed control at 50 µg/cm2 ([1]; read-out: CL rating): 50 to 100%; pest or weed control at 50 µg/cm2 ([2]; read-out: BAW rating): 50 to 100%

`Cc1ccc(COCC(F)(F)F)c(N2C(=O)CS/C2=N\C(=O)Nc2ccc(-c3ccn(-c4ccc(C(F)(F)F)cn4)n3)cc2F)c1` [Compound J308, (Z)-1-(2-Fluoro-4-(1-(5-(trifluoromethyl)pyridin-2-yl)-1H-pyrazol-3-yl)phenyl)-3-(3-(5-methyl-2-((2,2,2-trifluoroethoxy)methyl)phenyl)-4-oxothiazolidin-2-ylidene)urea] was tested. Which pest or weed control at 50 µg/cm2 [1, 3] did it give?
Its pest or weed control at 50 µg/cm2 is 50 to 100%.

And the pest or weed control at 50 µg/cm2 [2, 4]?
Its pest or weed control at 50 µg/cm2 is 50 to 100%.

`CC(C)c1ccc(Cl)cc1N1C(=O)CS/C1=N\C(=O)Nc1ccc(-c2ncn(-c3ccc(OC(F)(F)F)cc3)n2)cc1F` [Compound J46, (Z)-1-(3-(5-Chloro-2-isopropylphenyl)-4-oxothiazolidin-2-ylidene)-3-(2-fluoro-4-(1-(4-(trifluoromethoxy)phenyl)-1H-1,2,4-triazol-3-yl)phenyl)urea] was tested. Which pest or weed control at 50 µg/cm2 [1, 3] did it give?
Its pest or weed control at 50 µg/cm2 is 50 to 100%.

And the pest or weed control at 50 µg/cm2 [2, 4]?
The pest or weed control at 50 µg/cm2 was 50 to 100%.

How did the CL rating [1] turn out when `Cc1cccc(N2C(=O)CS/C2=N\C(=O)Nc2ccc(-c3ncn(-c4cccc(OC(F)(F)F)c4)n3)cc2F)c1COCC(F)(F)F` [Compound J706] was run?
The CL rating was “A (50-100)”.

What about the BAW rating [2] of the same compound?
The BAW rating was “A (50-100)”.

How did the pest or weed control at 50 µg/cm2 ([1]; read-out: CL rating) turn out when `CC(C)c1ccc(N(C)C)cc1N1C(=O)CS/C1=N\C(=O)Nc1ccc(-c2ccn(-c3ccc(C(F)(F)F)nn3)n2)cc1F` [Compound J391] was run?
Its pest or weed control at 50 µg/cm2 is 50 to 100%.

And the pest or weed control at 50 µg/cm2 ([2]; read-out: BAW rating)?
Its pest or weed control at 50 µg/cm2 is 50 to 100%.

With `COCOc1cc(-c2ncn(-c3ccc(OC(F)(F)F)cc3)n2)ccc1NC(=O)/N=C1\SCC(=O)N1c1cc(C)ccc1OCC(F)(F)F` [Compound J171, (Z)-1-(2-(Methoxymethoxy)-4-(1-(4-(trifluoromethoxy)phenyl)-1H-1,2,4-triazol-3-yl)phenyl)-3-(3-(5-methyl-2-(2,2,2-trifluoroethoxy)phenyl)-4-oxothiazolidin-2-ylidene)urea] as the compound, how does the pest or weed control at 50 µg/cm2 [1, 3] read?
Its pest or weed control at 50 µg/cm2 is 50 to 100%.

And the pest or weed control at 50 µg/cm2 [2, 4]?
The pest or weed control at 50 µg/cm2 was 50 to 100%.

For `Cc1ccc(COCC(F)(F)F)c(N2C(=O)CS/C2=N\C(=O)Nc2ccc(-c3ncn(-c4ccc(CC#N)cc4)n3)cc2F)c1` [Compound J425, (Z)-1-(4-(1-(4-(Cyanomethyl)phenyl)-1H-1,2,4-triazol-3-yl)-2-fluorophenyl)-3-(3-(5-methyl-2-((2,2,2-trifluoroethoxy)methyl)phenyl)-4-oxothiazolidin-2-ylidene)urea], which pest or weed control at 50 µg/cm2 ([1]; read-out: CL rating) is on record?
The pest or weed control at 50 µg/cm2 was 50 to 100%.

What about the pest or weed control at 50 µg/cm2 ([2]; read-out: BAW rating) of the same compound?
Its pest or weed control at 50 µg/cm2 is 50 to 100%.

What does the source list for `Cc1ccc(OCCC(F)(F)F)c(N2C(=O)CS/C2=N\C(=O)Nc2ccc(-c3ncn(-c4ccc(OCC#N)cc4)n3)cc2C)c1` [Compound J360, (Z)-1-(4-(1-(4-(Cyanomethoxy)phenyl)-1H-1,2,4-triazol-3-yl)-2-methylphenyl)-3-(3-(5-methyl-2-(3,3,3-trifluoropropoxy)phenyl)-4-oxothiazolidin-2-ylidene)urea]?
pest or weed control at 50 µg/cm2 ([1]; read-out: CL rating): 50 to 100%; pest or weed control at 50 µg/cm2 ([2]; read-out: BAW rating): 50 to 100%

Which pest or weed control at 50 µg/cm2 ([1]; read-out: CL rating) does the source give for `CC(C)c1ccc(N(C)C)cc1N1C(=O)CS/C1=N\C(=O)Nc1ccc(-c2nnc(-c3ccc(OC(F)(F)F)cc3)o2)cc1F` [Compound J431, (Z)-1-(3-(5-(Dimethylamino)-2-isopropylphenyl)-4-oxothiazolidin-2-ylidene)-3-(2-fluoro-4-(5-(4-(trifluoromethoxy)phenyl)-1,3,4-oxadiazol-2-yl)phenyl)urea] here?
The pest or weed control at 50 µg/cm2 was 50 to 100%.

And the pest or weed control at 50 µg/cm2 ([2]; read-out: BAW rating)?
Its pest or weed control at 50 µg/cm2 is 50 to 100%.

Which “CL (Biological Results, rating)” value [1] does the source give for `CCOC(C)c1ccc(C)cc1N1C(=O)CS/C1=N\C(=O)Nc1ccc(-c2ncn(-c3ccc(C(F)F)cn3)n2)cc1F` (stereo not shown) [Compound J354] here?
The value was “A (50-100)”.

And the “BAW (Biological Results, rating)” value [2]?
The value was “A (50-100)”.

For `Cc1ccc(C(C)C)c(N2C(=O)CS/C2=N\C(=O)Nc2c(F)cc(-c3ncn(-c4ccc(OC(F)(F)F)cc4)n3)cc2F)c1` [Compound J78, (Z)-1-(2,6-Difluoro-4-(1-(4-(trifluoromethoxy)phenyl)-1H-1,2,4-triazol-3-yl)phenyl)-3-(3-(2-isopropyl-5-methylphenyl)-4-oxothiazolidin-2-ylidene)urea], which pest or weed control at 50 µg/cm2 [1, 3] is on record?
Its pest or weed control at 50 µg/cm2 is 50 to 100%.

What about the pest or weed control at 50 µg/cm2 [2, 4] of the same compound?
Its pest or weed control at 50 µg/cm2 is 50 to 100%.

Which results are given for `CCCc1ccc(C)cc1N1C(=O)CS/C1=N\C(=O)Nc1ccc(-c2ncn(-c3ccc(S(F)(F)(F)(F)F)cc3)n2)cc1C#N` [Compound J583, (Z)-1-(2-Cyano-4-(1-(4-(pentafluoro-λ^6-sulfaneyl)phenyl)-1H-1,2,4-triazol-3-yl)phenyl)-3-(3-(5-methyl-2-propylphenyl)-4-oxothiazolidin-2-ylidene)urea]?
pest or weed control at 50 µg/cm2 ([1]; read-out: CL rating): 50 to 100%; pest or weed control at 50 µg/cm2 ([2]; read-out: BAW rating): 50 to 100%

For `Cc1ccc(COCC(F)(F)F)c(N2C(=O)CS/C2=N\C(=O)Nc2ccc(-c3ncn(-c4ccc(C(F)F)cn4)n3)cc2F)c1` [Compound J346], which “CL (Biological Results, rating)” value [1] is on record?
The value was “A (50-100)”.

What about the “BAW (Biological Results, rating)” value [2] of the same compound?
Its value is “A (50-100)”.

Which results are given for `Cc1ccc(COCC(F)(F)F)c(N2C(=O)CS/C2=N\C(=O)Nc2ccc(-c3ncn(-c4cccc(OC(F)(F)F)c4)n3)cc2F)c1` [Compound J705]?
CL rating [1]: A (50-100); BAW rating [2]: A (50-100)

For `Cc1ccc(C(C)C)c(N2C(=O)CS/C2=N\C(=O)Nc2ccc(-c3ncn(-c4ccc(OC(F)(F)F)cn4)n3)cc2F)c1` [Compound J270, (Z)-1-(2-Fluoro-4-(1-(5-(trifluoromethoxy)pyridin-2-yl)-1H-1,2,4-triazol-3-yl)phenyl)-3-(3-(2-isopropyl-5-methylphenyl)-4-oxothiazolidin-2-ylidene)urea], which pest or weed control at 50 µg/cm2 [1, 3] is on record?
The pest or weed control at 50 µg/cm2 was 50 to 100%.

What about the pest or weed control at 50 µg/cm2 [2, 4] of the same compound?
The pest or weed control at 50 µg/cm2 was 50 to 100%.

How did the pest or weed control at 50 µg/cm2 [1, 3] turn out when `CCCN(CCC)c1ccc(C(C)C)c(N2C(=O)CS/C2=N\C(=O)Nc2ccc(-c3ncn(-c4ccc(OC(F)(F)F)cc4)n3)cc2F)c1` [Compound J108, (Z)-1-(3-(5-(Dipropylamino)-2-isopropylphenyl)-4-oxothiazolidin-2-ylidene)-3-(2-fluoro-4-(1-(4-(trifluoromethoxy)phenyl)-1H-1,2,4-triazol-3-yl)phenyl)urea] was run?
The pest or weed control at 50 µg/cm2 was 50 to 100%.

And the pest or weed control at 50 µg/cm2 [2, 4]?
The pest or weed control at 50 µg/cm2 was 50 to 100%.
